Patent US12471596B2 (priority 2019, dated 2025)

Key:
Plasmopara viticola = assay: Example B: Plasmopara viticola test in grape (greenhouse, preventive); assay type: in vivo; conditions: 24 h, grape seedlings sprayed one day before inoculation, disease severity rating, read-out: control compared to the untreated check
Method: Example B: Plasmopara viticola Test in Grape
The compound were dissolved in 2% DMSO/Acetone & then mixed with water containing emulsifier to a calibrated spray volume of 50 mL. The spray solutions were poured into spray bottles for further applications.
To test the preventive activity of compounds, 5 week old healthy grape seedlings, cv. Thompson seedless, raised in the greenhouse, were sprayed with the active compound preparation at the stated application rates inside spray cabinets using hallow cone nozzles. One day after treatment, the plants were inoculated with an inoculum suspension (sterile water) containing 6×10^4 Plasmopara viticola inoculum. The inoculated plants were then kept in a greenhouse chamber at 18-21° C. temperature and 95-100% relative humidity for disease expression.
A visual assessment of the performance of the compound was carried out by rating the disease severity (0-100% scale) on treated plants 3, 7 and 10 days after application. Efficacy (% control) of the compound was calculated by comparing the disease rating in the treatment with the one of the untreated control. The compounds were also assessed for their plant compatibility by recording symptoms like necrosis, chlorosis & stunting

Phytophthora infestans [1] = assay: whole plant or invertebrate; assay type: in vivo, Phytophthora infestans on tomato plants; conditions: in Solanum lycopersicum, 24 h, read-out: control compared to the untreated check
Phytophthora infestans [2] = assay: microbe, parasite or virus in culture; assay type: cell-based; conditions: in Secale cereale, 168 h, read-out: control compared to the untreated check

Structure (SMILES) | pest or weed control at 50 ppm (Plasmopara viticola) [%] | pest or weed control at 50 ppm (Phytophthora infestans [1]) [%] | inhibition of growth at 30 ppm (Phytophthora infestans [2]) [%]
N#Cc1ccnc(OCC(=O)N2CCC(c3nc(C4=NOC(c5c(F)cccc5Cl)C4)cs3)CC2)n1 (stereo not shown) [Compound 118, 2-(2-(4-(4-(5-(2-chloro-6-fluorophenyl)-4,5-dihydroisoxazol-3-yl)thiazol-2-yl)piperidin-1-yl)-2-oxoethoxy)pyrimidine-4-carbonitrile] | ≥ 70 | ≥ 70 | ≥ 70
O=C(COc1nccnc1C(F)(F)F)N1CCC(c2nc(C3=NOC(c4c(Cl)cccc4Cl)C3)cs2)CC1 (stereo not shown) [Compound 3, 1-(4-(4-(5-(2,6-dichlorophenyl)-4,5-dihydroisoxazol-3-yl)thiazol-2-yl)piperidin-1-yl)-2-((3-(trifluoromethyl)pyrazin-2-yl)oxy)ethan-1-one] | ≥ 70 | ≥ 70 | ≥ 70
COc1nc(OC)nc(OCC(=O)N2CCC(c3nc(C4=NOC(c5c(F)cccc5Br)C4)cs3)CC2)n1 (stereo not shown) [Compound 110, 1-(4-(4-(5-(2-bromo-6-fluorophenyl)-4,5-dihydroisoxazol-3-yl)thiazol-2-yl)piperidin-1-yl)-2-((4,6-dimethoxy-1,3,5-triazin-2-yl)oxy)ethan-1-one] | ≥ 70 | ≥ 70 | ≥ 70
O=C(COc1nccnc1C(F)(F)F)N1CCC(c2nc(C3=NOC(c4c(F)cccc4Cl)C3)cs2)CC1 (stereo not shown) [Compound 1, 1-(4-(4-(5-(2-chloro-6-fluorophenyl)-4,5-dihydroisoxazol-3-yl)thiazol-2-yl)piperidin-1-yl)-2-((3-(trifluoromethyl)pyrazin-2-yl)oxy)ethan-1-one] | ≥ 70 | ≥ 70 | ≥ 70
O=C(COc1nccnc1Cl)N1CCC(c2nc(C3=NOC(c4c(F)cccc4Br)C3)cs2)CC1 (stereo not shown) [Compound 121, 1-(4-(4-(5-(2-bromo-6-fluorophenyl)-4,5-dihydroisoxazol-3-yl)thiazol-2-yl)piperidin-1-yl)-2-((3-chloropyrazin-2-yl)oxy)ethan-1-one] | ≥ 70 | ≥ 70 | ≥ 70
O=C(COc1nccnc1C(F)(F)F)N1CCC(c2nc(C3=NOC(c4c(F)cccc4F)C3)sc2Cl)CC1 (stereo not shown) [Compound 22, 1-(4-(5-chloro-2-(5-(2,6-difluorophenyl)-4,5-dihydroisoxazol-3-yl)thiazol-4-yl)piperidin-1-yl)-2-((3-(trifluoromethyl)pyrazin-2-yl)oxy)ethan-1-one] | ≥ 70 | – | –
O=C(COc1nccnc1C(F)(F)F)N1CCC(c2csc(C3=NOC(c4c(F)cccc4F)C3)n2)CC1 (stereo not shown) [Compound 23, 1-(4-(2-(5-(2,6-difluorophenyl)-4,5-dihydroisoxazol-3-yl)thiazol-4-yl)piperidin-1-yl)-2-((3-(trifluoromethyl)pyrazin-2-yl)oxy)ethan-1-one] | ≥ 70 | – | ≥ 70
N#Cc1ccnc(OCC(=O)N2CCC(c3nc(C4=NOC(c5c(Cl)cccc5Cl)C4)cs3)CC2)n1 (stereo not shown) [Compound 112, 2-(2-(4-(4-(5-(2,6-dichlorophenyl)-4,5-dihydroisoxazol-3-yl)thiazol-2-yl)piperidin-1-yl)-2-oxoethoxy)pyrimidine-4-carbonitrile] | ≥ 70 | ≥ 70 | ≥ 70
CS(=O)(=O)Oc1cccc(Cl)c1C1CC(c2csc(C3CCN(C(=O)COc4nccnc4Cl)CC3)n2)=NO1 (stereo not shown) [Compound 127, 3-chloro-2-(3-(2-(1-(2-((3-chloropyrazin-2-yl)oxy)acetyl)piperidin-4-yl)thiazol-4-yl)-4,5-dihydroisoxazol-5-yl)phenyl methanesulfonate] | ≥ 70 | ≥ 70 | –
COc1cncc(OCC(=O)N2CCC(c3nc(C4=NOC(c5c(F)cccc5Br)C4)cs3)CC2)n1 (stereo not shown) [Compound 120, 1-(4-(4-(5-(2-bromo-6-fluorophenyl)-4,5-dihydroisoxazol-3-yl)thiazol-2-yl)piperidin-1-yl)-2-((6-methoxypyrazin-2-yl)oxy)ethan-1-one] | ≥ 70 | ≥ 70 | ≥ 70
O=C(COc1nccnc1Cl)N1CCC(c2nc(C3=NOC(c4c(Cl)cc(Cl)cc4Cl)C3)cs2)CC1 (stereo not shown) [Compound 123, 2-((3-chloropyrazin-2-yl)oxy)-1-(4-(4-(5-(2,4,6-trichlorophenyl)-4,5-dihydroisoxazol-3-yl)thiazol-2-yl)piperidin-1-yl)ethan-1-one] | ≥ 70 | ≥ 70 | –
O=C(COc1nccnc1C(F)(F)F)N1CCC(c2nc(C3=NOC(c4c(F)cccc4F)C3)cs2)CC1 (stereo not shown) [Compound 5, 1-(4-(4-(5-(2,6-difluorophenyl)-4,5-dihydroisoxazol-3-yl)thiazol-2-yl)piperidin-1-yl)-2-((3-(trifluoromethyl)pyrazin-2-yl)oxy)ethan-1-one] | – | ≥ 70 | ≥ 70
O=C(COc1ccc(C(F)(F)F)nn1)N1CCC(c2nc(C3=NOC(c4c(F)cccc4Br)C3)cs2)CC1 (stereo not shown) [Compound 43, 1-(4-(4-(5-(2-bromo-6-fluorophenyl)-4,5-dihydroisoxazol-3-yl)thiazol-2-yl)piperidin-1-yl)-2-((6-(trifluoromethyl)pyridazin-3-yl)oxy)ethan-1-one] | – | ≥ 70 | ≥ 70
O=C(COc1cc(C(F)(F)F)ncn1)N1CCC(c2nc(C3=NOC(c4c(F)cccc4Cl)C3)cs2)CC1 (stereo not shown) [Compound 9, 1-(4-(4-(5-(2-chloro-6-fluorophenyl)-4,5-dihydroisoxazol-3-yl)thiazol-2-yl)piperidin-1-yl)-2-((6-(trifluoromethyl)pyrimidin-4-yl)oxy)ethan-1-one] | – | ≥ 70 | ≥ 70
COc1ccnc(OCC(=O)N2CCC(c3nc(C4=NOC(c5c(Cl)cccc5OS(C)(=O)=O)C4)cs3)CC2)n1 (stereo not shown) [Compound 32, 3-chloro-2-(3-(2-(1-(2-((4-methoxypyrimidin-2-yl)oxy)acetyl)piperidin-4-yl)thiazol-4-yl)-4,5-dihydroisoxazol-5-yl)phenyl methanesulfonate] | – | ≥ 70 | ≥ 70
O=C(COc1ccnc(C(F)(F)F)n1)N1CCC(c2nc(C3=NOC(c4c(F)cccc4F)C3)cs2)CC1 (stereo not shown) [Compound 17, 1-(4-(4-(5-(2,6-difluorophenyl)-4,5-dihydroisoxazol-3-yl)thiazol-2-yl)piperidin-1-yl)-2-((2-(trifluoromethyl)pyrimidin-4-yl)oxy)ethan-1-one] | – | ≥ 70 | ≥ 70
O=C(COc1cc(C(F)(F)F)ncn1)N1CCC(c2nc(C3=NOC(c4c(Cl)cccc4Cl)C3)cs2)CC1 (stereo not shown) [Compound 14, 1-(4-(4-(5-(2,6-dichlorophenyl)-4,5-dihydroisoxazol-3-yl)thiazol-2-yl)piperidin-1-yl)-2-((6-(trifluoromethyl)pyrimidin-4-yl)oxy)ethan-1-one] | – | ≥ 70 | ≥ 70
O=C(COc1nccnc1C(F)(F)F)N1CCC(c2nc(C3=NOC(c4c(Cl)cccc4C(F)(F)F)C3)cs2)CC1 (stereo not shown) [Compound 4, 1-(4-(4-(5-(2-chloro-6-(trifluoromethyl)phenyl)-4,5-dihydroisoxazol-3-yl)thiazol-2-yl)piperidin-1-yl)-2-((3-(trifluoromethyl)pyrazin-2-yl)oxy)ethan-1-one] | – | ≥ 70 | ≥ 70
COc1nccnc1OCC(=O)N1CCC(c2nc(C3=NOC(c4c(F)cccc4Cl)C3)cs2)CC1 (stereo not shown) [Compound 25, 1-(4-(4-(5-(2-chloro-6-fluorophenyl)-4,5-dihydroisoxazol-3-yl)thiazol-2-yl)piperidin-1-yl)-2-((3-methoxypyrazin-2-yl)oxy)ethan-1-one] | – | ≥ 70 | ≥ 70
O=C(COc1nccnc1Cl)N1CCC(c2nc(C3=NOC(c4c(F)cccc4Cl)C3)cs2)CC1 (stereo not shown) [Compound 125, 1-(4-(4-(5-(2-chloro-6-fluorophenyl)-4,5-dihydroisoxazol-3-yl)thiazol-2-yl)piperidin-1-yl)-2-((3-chloropyrazin-2-yl)oxy)ethan-1-one] | ≥ 70 | ≥ 70 | –
COc1ccnc(OCC(=O)N2CCC(c3nc(C4=NOC(c5c(F)cccc5Cl)C4)cs3)CC2)n1 (stereo not shown) [Compound 34, 1-(4-(4-(5-(2-chloro-6-fluorophenyl)-4,5-dihydroisoxazol-3-yl)thiazol-2-yl)piperidin-1-yl)-2-((4-methoxypyrimidin-2-yl)oxy)ethan-1-one] | – | ≥ 70 | ≥ 70
O=C(COc1nccnc1C(F)(F)F)N1CCC(c2nc(C3OCc4c(F)ccc(F)c4CO3)cs2)CC1 [Compound 64, 1-(4-(4-(6,9-difluoro-1,5-dihydrobenzo[e][1,3]dioxepin-3-yl)thiazol-2-yl)piperidin-1-yl)-2-((3-(trifluoromethyl)pyrazin-2-yl)oxy)ethan-1-one] | – | ≥ 70 | ≥ 70
COc1nccnc1OCC(=O)N1CCC(c2nc(C3=NOC(c4c(F)cccc4Br)C3)cs2)CC1 (stereo not shown) [Compound 28, 1-(4-(4-(5-(2-bromo-6-fluorophenyl)-4,5-dihydroisoxazol-3-yl)thiazol-2-yl)piperidin-1-yl)-2-((3-methoxypyrazin-2-yl)oxy)ethan-1-one] | – | ≥ 70 | ≥ 70
